Assay results reported in PMC2064598 (The Journal of Cell Biology, 2006).

Key:
[1] = target: T1, mGrA (Mus musculus, UniProt P11032); experiment: absorbance progress curve; type: biochemical
T1 sequence (P11032 29-260): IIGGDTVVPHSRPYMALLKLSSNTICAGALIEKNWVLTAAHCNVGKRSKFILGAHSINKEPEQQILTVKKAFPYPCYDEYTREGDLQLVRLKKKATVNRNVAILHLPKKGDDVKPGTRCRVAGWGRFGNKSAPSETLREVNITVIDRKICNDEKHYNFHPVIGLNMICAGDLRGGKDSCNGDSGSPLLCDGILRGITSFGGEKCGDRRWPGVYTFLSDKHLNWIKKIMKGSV

[2] = target: T2, hGrA (Homo sapiens, UniProt P12544); experiment: absorbance progress curve; type: biochemical
T2 sequence (P12544 29-262): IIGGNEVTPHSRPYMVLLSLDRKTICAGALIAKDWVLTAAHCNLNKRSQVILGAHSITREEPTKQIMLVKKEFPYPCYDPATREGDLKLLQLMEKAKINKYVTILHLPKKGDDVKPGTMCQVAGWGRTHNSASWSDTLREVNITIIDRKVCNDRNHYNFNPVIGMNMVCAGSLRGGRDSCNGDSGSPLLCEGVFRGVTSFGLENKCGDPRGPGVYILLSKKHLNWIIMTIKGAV

Compound: NCCCC[C@H](NC(=O)OCc1ccccc1)C(=O)SCc1ccccc1 [benzyloxy-carbonyl-Lys-thiobenzyl ester]
- specific activity [1]: Progress curves of mGrA (closed boxes) and hGrA (open boxes) cleaving benzyloxy-carbonyl-Lys-thiobenzyl ester
- specific activity [2]: Progress curves of mGrA (closed boxes) and hGrA (open boxes) cleaving benzyloxy-carbonyl-Lys-thiobenzyl ester
